Data published in article PMC10905675, “INX-315, a Selective CDK2 Inhibitor, Induces Cell Cycle Arrest and Senescence in Solid Tumors” (Cancer Discovery, 2023).
Read-outs that look alike come from different tables or passages of the source.

Key:
PIK3C2A (PI3K-C2 alpha) = target: T1, PIK3C2A (PI3K-C2 alpha) (Homo sapiens, UniProt O00443); assay: SelectScreen Adapta; format: biochemical; conditions: INX-0315 at 100nM
T1 construct: purchased Thermo Fisher Scientific SelectScreen (plus Nanosyn / Reaction Biology for CDK/cyclin lines)
Excerpt: (§1) INX-315 was first evaluated in the SelectScreen Biochemical Kinase Profiling at Thermo Fisher Scientific (Madison, WI). The primary screen consisted of INX-315 dosed at a single concentration of 100 nmol/L in 1% DMSO across each platform within the SelectScreen array of assays, LanthaScreen Eu Kinase Binding Assay; AdaptaScreen; and Z'LyteScreen using preestablished conditions at Thermo Fisher Scientific as shown in Supplementary Table S2. […] The follow-up screen consisted of 10-point dose–response curves for INX-315 from 1 µmol/L to 0.0495 nmol/L.

CDK9/cyclin T1 = target: T2, CDK9/cyclin T1 (Homo sapiens, UniProt P50750); assay: SelectScreen Adapta; format: biochemical; conditions: INX-0315 at 100nM
T2 construct: purchased Carna 04-110
Excerpt: as §1

PI4KB (PI4K beta) = target: T3, PI4KB (PI4K beta) (Homo sapiens, UniProt Q9UBF8); assay: SelectScreen Adapta; format: biochemical; conditions: INX-0315 at 100nM
T3 construct: purchased Thermo Fisher Scientific SelectScreen (plus Nanosyn / Reaction Biology for CDK/cyclin lines)
Excerpt: as §1

CDK6/cyclin D1 = target: T4, CDK6/cyclin D1 (Homo sapiens, UniProt Q00534); assay: SelectScreen Adapta; format: biochemical; conditions: INX-0315 at 100nM
T4 construct: purchased Thermo Fisher Scientific SelectScreen (plus Nanosyn / Reaction Biology for CDK/cyclin lines)
Excerpt: as §1

LRRK2 = target: T5, LRRK2 (Homo sapiens, UniProt Q5S007); assay: SelectScreen Adapta; format: biochemical; conditions: INX-0315 at 100nM
T5 construct: purchased Thermo Fisher Scientific SelectScreen (plus Nanosyn / Reaction Biology for CDK/cyclin lines)
Excerpt: as §1

PIP5K1A = target: T6, PIP5K1A (Homo sapiens, UniProt Q99755); assay: SelectScreen Adapta; format: biochemical; conditions: INX-0315 at 100nM
T6 construct: purchased Thermo Fisher Scientific SelectScreen (plus Nanosyn / Reaction Biology for CDK/cyclin lines)
Excerpt: as §1

[1] = target: T7, PIK3CA E542K/PIK3R1 (p110 alpha E542K/p85 alpha) (Homo sapiens, UniProt P42336, E542K); assay: SelectScreen Adapta; format: biochemical; conditions: INX-0315 at 100nM
T7 construct: purchased Thermo Fisher Scientific SelectScreen (plus Nanosyn / Reaction Biology for CDK/cyclin lines)
Excerpt: as §1

PI4K2B (PI4K2 beta) = target: T8, PI4K2B (PI4K2 beta) (Homo sapiens, UniProt Q8TCG2); assay: SelectScreen Adapta; format: biochemical; conditions: INX-0315 at 100nM
T8 construct: purchased Thermo Fisher Scientific SelectScreen (plus Nanosyn / Reaction Biology for CDK/cyclin lines)
Excerpt: as §1

DAPK1 = target: T9, DAPK1 (Homo sapiens, UniProt P53355); assay: SelectScreen Adapta; format: biochemical; conditions: INX-0315 at 100nM
T9 construct: purchased Thermo Fisher Scientific SelectScreen (plus Nanosyn / Reaction Biology for CDK/cyclin lines)
Excerpt: as §1

NUAK1 (ARK5) = target: T10, NUAK1 (ARK5) (Homo sapiens, UniProt O60285); assay: SelectScreen Adapta; format: biochemical; conditions: INX-0315 at 100nM
T10 construct: purchased Thermo Fisher Scientific SelectScreen (plus Nanosyn / Reaction Biology for CDK/cyclin lines)
Excerpt: as §1

CDK4/cyclin D3 = target: T11, CDK4/cyclin D3 (Homo sapiens, UniProt P11802); assay: SelectScreen Adapta; format: biochemical; conditions: INX-0315 at 100nM
T11 construct: purchased Thermo Fisher Scientific SelectScreen (plus Nanosyn / Reaction Biology for CDK/cyclin lines)
Excerpt: as §1

LRRK2 I2020T = target: T12, LRRK2 I2020T (Homo sapiens, UniProt Q5S007, I2020T); assay: SelectScreen Adapta; format: biochemical; conditions: INX-0315 at 100nM
T12 construct: purchased Thermo Fisher Scientific SelectScreen (plus Nanosyn / Reaction Biology for CDK/cyclin lines)
Excerpt: as §1

[2] = target: T13, PIK3CA/PIK3R3 (p110 alpha/p55 gamma) (Homo sapiens, UniProt P42336); assay: SelectScreen Adapta; format: biochemical; conditions: INX-0315 at 100nM
T13 construct: purchased Thermo Fisher Scientific SelectScreen (plus Nanosyn / Reaction Biology for CDK/cyclin lines)
Excerpt: as §1

CAMK1 (CaMK1) = target: T14, CAMK1 (CaMK1) (Homo sapiens, UniProt Q14012); assay: SelectScreen Adapta; format: biochemical; conditions: INX-0315 at 100nM
T14 construct: purchased Thermo Fisher Scientific SelectScreen (plus Nanosyn / Reaction Biology for CDK/cyclin lines)
Excerpt: as §1

CDK7/cyclin H/MNAT1 = target: T15, CDK7/cyclin H/MNAT1 (Homo sapiens, UniProt P50613); assay: SelectScreen Adapta; format: biochemical; conditions: INX-0315 at 100nM
T15 construct: purchased Thermo Fisher Scientific SelectScreen (plus Nanosyn / Reaction Biology for CDK/cyclin lines)
Excerpt: as §1

LRRK2 G2019S FL = target: T16, LRRK2 G2019S FL (Homo sapiens, UniProt Q5S007, G2019S); assay: SelectScreen Adapta; format: biochemical; conditions: INX-0315 at 100nM
T16 construct: purchased Thermo Fisher Scientific SelectScreen (plus Nanosyn / Reaction Biology for CDK/cyclin lines)
Excerpt: as §1

PIP4K2A = target: T17, PIP4K2A (Homo sapiens, UniProt P48426); assay: SelectScreen Adapta; format: biochemical; conditions: INX-0315 at 100nM
T17 construct: purchased Thermo Fisher Scientific SelectScreen (plus Nanosyn / Reaction Biology for CDK/cyclin lines)
Excerpt: as §1

PIK3CG (p110 gamma) = target: T18, PIK3CG (p110 gamma) (Homo sapiens, UniProt P48736); assay: SelectScreen Adapta; format: biochemical; conditions: INX-0315 at 100nM
T18 construct: purchased Thermo Fisher Scientific SelectScreen (plus Nanosyn / Reaction Biology for CDK/cyclin lines)
Excerpt: as §1

PI4KA (PI4K alpha) = target: T19, PI4KA (PI4K alpha) (Homo sapiens, UniProt P42356); assay: SelectScreen Adapta; format: biochemical; conditions: INX-0315 at 100nM
T19 construct: purchased Thermo Fisher Scientific SelectScreen (plus Nanosyn / Reaction Biology for CDK/cyclin lines)
Excerpt: as §1

PIK3C3 (hVPS34) = target: T20, PIK3C3 (hVPS34) (Homo sapiens, UniProt Q8NEB9); assay: SelectScreen Adapta; format: biochemical; conditions: INX-0315 at 100nM
T20 construct: purchased Thermo Fisher Scientific SelectScreen (plus Nanosyn / Reaction Biology for CDK/cyclin lines)
Excerpt: as §1

GSG2 (Haspin) = target: T21, GSG2 (Haspin) (Homo sapiens, UniProt Q8TF76); assay: SelectScreen Adapta; format: biochemical; conditions: INX-0315 at 100nM
T21 construct: purchased Thermo Fisher Scientific SelectScreen (plus Nanosyn / Reaction Biology for CDK/cyclin lines)
Excerpt: as §1

CDK4/cyclin D1 = target: T22, CDK4/cyclin D1 (Homo sapiens, UniProt P11802); assay: SelectScreen Adapta; format: biochemical; conditions: INX-0315 at 100nM
T22 construct: purchased ThermoFisher PV4400
Excerpt: as §1

SPHK2 = target: T23, SPHK2 (Homo sapiens, UniProt Q9NRA0); assay: SelectScreen Adapta; format: biochemical; conditions: INX-0315 at 100nM
T23 construct: purchased Thermo Fisher Scientific SelectScreen (plus Nanosyn / Reaction Biology for CDK/cyclin lines)
Excerpt: as §1

[3] = target: T24, PIK3CA E545K/PIK3R1 (p110 alpha E545K/p85 alpha) (Homo sapiens, UniProt P42336, E545K); assay: SelectScreen Adapta; format: biochemical; conditions: INX-0315 at 100nM
T24 construct: purchased Thermo Fisher Scientific SelectScreen (plus Nanosyn / Reaction Biology for CDK/cyclin lines)
Excerpt: as §1

LRRK2 R1441C = target: T25, LRRK2 R1441C (Homo sapiens, UniProt Q5S007, R1441C); assay: SelectScreen Adapta; format: biochemical; conditions: INX-0315 at 100nM
T25 construct: purchased Thermo Fisher Scientific SelectScreen (plus Nanosyn / Reaction Biology for CDK/cyclin lines)
Excerpt: as §1

[4] = tested on: palbociclib-resistant MCF7 cells; assay: CellTiter Glo viability assay; format: cell-based; conditions: Homo sapiens
Experimental: (§2) An exception to this is MCF7PDRCl5-1 cells which were first cultured for 5 days without palbociclib then plated as described. MCF7PDRCl5-1 cells were treated with either a dose curve of the indicated CDK4/6i or a dose curve of INX-315 + 1 µmol/L of the indicated CDK4/6i. Cell viability was determined using the CellTiter-Glo assay (Promega, G9241) following manufacturer's instructions. Plates were processed on either BioTek Synergy2 multi-mode (Agilent) or ClarioSTAR (BMG Labtech) plate readers. T47D and MCF7 cells were seeded into […] plates using BioTek 406 (Aglient) and treated with a ten-point dose concentration from 10 µmol/L to 0.3 nmol/L of INX-315 for 2× doubling times. Plates were fixed with 4% PFA and stained with Rhodamine-Phalloidin (Bio-Trend, 00027) and DAPI (5 mg/mL, Invitrogen, catalog no. D1306). Plates were imaged using CellInsight CX7 LZR and DAPI-positive cells were counted using Thermo Fisher Scientific HCS Studio Cell Analysis Software.

[5] = tested on: all CCNE1-amplified lines; assay: CellTiter Glo viability assay; format: cell-based; conditions: 144 h
Experimental: as §2

MKN1 = assay: CellTiter Glo viability assay; format: cell-based; conditions: Homo sapiens, MKN-1, 144 h; MKN1 gastric carcinoma, 6 days
Experimental: as §2

T2 sequence (P50750 whole entry): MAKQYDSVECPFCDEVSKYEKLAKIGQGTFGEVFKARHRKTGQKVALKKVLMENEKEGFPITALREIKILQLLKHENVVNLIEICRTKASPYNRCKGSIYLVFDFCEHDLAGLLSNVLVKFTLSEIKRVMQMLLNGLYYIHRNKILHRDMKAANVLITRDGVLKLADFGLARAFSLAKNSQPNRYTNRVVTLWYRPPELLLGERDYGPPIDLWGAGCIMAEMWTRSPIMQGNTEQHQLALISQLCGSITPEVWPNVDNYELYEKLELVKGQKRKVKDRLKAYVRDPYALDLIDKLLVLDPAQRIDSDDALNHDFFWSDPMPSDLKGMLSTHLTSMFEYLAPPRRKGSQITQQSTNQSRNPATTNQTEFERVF
T2 sequence (O60563 whole entry partner): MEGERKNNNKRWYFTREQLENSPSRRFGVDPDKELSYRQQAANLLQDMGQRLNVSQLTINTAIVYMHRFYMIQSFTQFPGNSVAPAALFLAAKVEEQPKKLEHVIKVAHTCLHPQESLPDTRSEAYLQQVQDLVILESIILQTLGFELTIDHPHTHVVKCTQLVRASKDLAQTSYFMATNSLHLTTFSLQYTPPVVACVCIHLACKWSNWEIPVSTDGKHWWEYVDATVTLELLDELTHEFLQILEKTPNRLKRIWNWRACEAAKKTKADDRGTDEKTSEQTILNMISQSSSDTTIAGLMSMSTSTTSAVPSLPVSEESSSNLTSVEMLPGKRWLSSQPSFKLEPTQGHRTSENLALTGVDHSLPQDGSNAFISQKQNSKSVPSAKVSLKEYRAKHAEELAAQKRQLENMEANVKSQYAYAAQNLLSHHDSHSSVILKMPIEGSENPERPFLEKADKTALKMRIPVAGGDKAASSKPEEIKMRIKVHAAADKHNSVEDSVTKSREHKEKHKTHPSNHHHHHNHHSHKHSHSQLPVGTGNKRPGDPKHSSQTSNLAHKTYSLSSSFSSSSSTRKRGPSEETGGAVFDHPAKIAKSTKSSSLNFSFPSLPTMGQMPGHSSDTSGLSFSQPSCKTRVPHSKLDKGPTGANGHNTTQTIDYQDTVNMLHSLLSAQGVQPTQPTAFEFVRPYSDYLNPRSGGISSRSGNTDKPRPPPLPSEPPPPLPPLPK
T25 sequence (Q5S007 whole entry R1441C): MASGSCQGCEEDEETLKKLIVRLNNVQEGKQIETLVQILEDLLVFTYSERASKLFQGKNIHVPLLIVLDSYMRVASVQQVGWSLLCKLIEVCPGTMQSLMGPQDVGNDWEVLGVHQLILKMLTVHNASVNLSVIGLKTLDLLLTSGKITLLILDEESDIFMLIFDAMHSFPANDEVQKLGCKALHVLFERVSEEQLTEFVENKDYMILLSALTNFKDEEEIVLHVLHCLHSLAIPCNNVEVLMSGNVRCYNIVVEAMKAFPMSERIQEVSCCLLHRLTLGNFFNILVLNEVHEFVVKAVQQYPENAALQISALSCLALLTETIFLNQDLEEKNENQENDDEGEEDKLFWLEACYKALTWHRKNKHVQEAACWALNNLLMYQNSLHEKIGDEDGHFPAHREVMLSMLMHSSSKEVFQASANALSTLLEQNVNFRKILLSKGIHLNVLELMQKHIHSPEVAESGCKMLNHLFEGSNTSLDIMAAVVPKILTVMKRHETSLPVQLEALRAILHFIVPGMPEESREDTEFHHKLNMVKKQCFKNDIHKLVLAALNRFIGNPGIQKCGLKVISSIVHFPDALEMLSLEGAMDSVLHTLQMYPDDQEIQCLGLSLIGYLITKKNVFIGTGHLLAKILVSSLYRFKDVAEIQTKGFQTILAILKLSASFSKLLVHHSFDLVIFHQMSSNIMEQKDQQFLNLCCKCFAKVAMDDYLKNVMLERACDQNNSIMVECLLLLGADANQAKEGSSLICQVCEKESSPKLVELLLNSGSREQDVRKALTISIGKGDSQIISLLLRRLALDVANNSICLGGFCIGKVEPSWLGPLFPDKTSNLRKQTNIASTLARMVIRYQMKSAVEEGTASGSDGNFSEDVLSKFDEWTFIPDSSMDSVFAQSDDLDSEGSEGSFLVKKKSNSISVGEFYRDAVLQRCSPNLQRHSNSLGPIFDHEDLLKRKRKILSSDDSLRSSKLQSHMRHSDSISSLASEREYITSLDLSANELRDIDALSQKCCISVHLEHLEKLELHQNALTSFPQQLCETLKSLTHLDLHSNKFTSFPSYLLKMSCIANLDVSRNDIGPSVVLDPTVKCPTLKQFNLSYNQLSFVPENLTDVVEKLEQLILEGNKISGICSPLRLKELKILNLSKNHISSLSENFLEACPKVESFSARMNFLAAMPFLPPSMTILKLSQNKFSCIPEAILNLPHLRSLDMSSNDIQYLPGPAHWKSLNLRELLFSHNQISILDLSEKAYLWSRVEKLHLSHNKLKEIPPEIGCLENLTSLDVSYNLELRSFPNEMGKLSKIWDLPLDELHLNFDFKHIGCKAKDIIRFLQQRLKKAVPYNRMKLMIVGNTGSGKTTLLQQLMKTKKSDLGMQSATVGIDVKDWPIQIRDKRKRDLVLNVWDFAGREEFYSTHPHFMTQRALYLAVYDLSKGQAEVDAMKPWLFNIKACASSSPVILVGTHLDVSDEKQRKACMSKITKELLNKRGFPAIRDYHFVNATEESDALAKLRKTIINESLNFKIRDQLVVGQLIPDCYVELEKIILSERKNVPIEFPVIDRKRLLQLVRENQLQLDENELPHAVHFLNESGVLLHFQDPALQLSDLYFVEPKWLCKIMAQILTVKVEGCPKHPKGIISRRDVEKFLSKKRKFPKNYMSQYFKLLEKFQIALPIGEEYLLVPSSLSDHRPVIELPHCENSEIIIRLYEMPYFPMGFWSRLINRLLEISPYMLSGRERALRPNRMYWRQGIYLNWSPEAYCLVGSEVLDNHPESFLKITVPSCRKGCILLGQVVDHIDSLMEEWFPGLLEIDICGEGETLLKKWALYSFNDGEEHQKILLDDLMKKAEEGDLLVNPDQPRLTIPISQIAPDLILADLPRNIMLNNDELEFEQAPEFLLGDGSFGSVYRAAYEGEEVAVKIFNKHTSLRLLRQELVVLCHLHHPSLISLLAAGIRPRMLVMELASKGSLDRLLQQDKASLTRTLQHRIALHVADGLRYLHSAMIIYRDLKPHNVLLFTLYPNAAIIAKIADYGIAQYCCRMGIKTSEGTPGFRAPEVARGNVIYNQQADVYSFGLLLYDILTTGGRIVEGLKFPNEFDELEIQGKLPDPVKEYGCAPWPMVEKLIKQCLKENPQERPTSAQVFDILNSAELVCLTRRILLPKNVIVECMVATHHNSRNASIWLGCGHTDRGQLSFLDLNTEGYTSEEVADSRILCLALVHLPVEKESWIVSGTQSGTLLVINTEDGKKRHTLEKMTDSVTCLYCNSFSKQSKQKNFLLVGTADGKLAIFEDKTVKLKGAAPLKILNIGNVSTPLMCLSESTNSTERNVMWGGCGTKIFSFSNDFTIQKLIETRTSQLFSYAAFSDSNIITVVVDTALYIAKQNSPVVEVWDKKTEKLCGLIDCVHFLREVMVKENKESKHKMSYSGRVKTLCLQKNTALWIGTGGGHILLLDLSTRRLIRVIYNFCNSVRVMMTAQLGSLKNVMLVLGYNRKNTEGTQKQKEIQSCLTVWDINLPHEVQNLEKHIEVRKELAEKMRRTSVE
T3 sequence (Q9UBF8 whole entry): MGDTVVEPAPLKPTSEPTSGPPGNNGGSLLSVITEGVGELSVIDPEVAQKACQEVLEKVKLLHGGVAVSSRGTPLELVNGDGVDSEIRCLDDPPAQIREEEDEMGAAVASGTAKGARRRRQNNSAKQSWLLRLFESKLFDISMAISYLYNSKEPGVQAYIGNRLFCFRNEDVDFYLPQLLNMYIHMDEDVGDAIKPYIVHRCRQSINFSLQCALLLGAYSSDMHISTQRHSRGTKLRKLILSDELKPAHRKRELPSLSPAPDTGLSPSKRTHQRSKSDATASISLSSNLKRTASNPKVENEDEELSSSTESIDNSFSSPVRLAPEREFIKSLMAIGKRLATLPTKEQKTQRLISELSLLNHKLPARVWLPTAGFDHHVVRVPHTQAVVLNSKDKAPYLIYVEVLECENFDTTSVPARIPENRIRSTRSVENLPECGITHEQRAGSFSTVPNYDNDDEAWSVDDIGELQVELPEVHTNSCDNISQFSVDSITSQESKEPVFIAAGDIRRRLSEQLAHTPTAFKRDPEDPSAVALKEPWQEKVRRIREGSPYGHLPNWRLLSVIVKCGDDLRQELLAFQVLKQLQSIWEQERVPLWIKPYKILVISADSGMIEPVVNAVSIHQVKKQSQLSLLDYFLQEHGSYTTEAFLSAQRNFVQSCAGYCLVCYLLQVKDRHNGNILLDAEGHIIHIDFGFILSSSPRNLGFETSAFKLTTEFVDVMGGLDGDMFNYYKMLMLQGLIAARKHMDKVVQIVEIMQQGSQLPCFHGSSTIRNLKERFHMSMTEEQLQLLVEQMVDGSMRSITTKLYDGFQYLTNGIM
T14 sequence (Q14012 whole entry): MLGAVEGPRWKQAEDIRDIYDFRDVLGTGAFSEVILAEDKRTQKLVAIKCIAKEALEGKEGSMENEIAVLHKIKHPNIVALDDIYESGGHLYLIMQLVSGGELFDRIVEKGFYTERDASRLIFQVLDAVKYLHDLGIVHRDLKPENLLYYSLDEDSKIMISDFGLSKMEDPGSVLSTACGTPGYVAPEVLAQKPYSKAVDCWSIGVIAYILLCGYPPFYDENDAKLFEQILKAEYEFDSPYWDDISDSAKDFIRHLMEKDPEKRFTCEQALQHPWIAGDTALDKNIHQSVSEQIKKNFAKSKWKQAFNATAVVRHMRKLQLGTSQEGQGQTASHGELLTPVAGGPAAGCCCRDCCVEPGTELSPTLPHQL
T12 sequence (Q5S007 whole entry I2020T): as the sequence (Q5S007 whole entry R1441C) above, with C1441R, I2020T counted along it
T16 sequence (Q5S007 whole entry G2019S): as the sequence (Q5S007 whole entry R1441C) above, with C1441R, G2019S counted along it
T5 sequence (Q5S007 whole entry): as the sequence (Q5S007 whole entry R1441C) above, with C1441R counted along it

SMILES: NS(=O)(=O)c1ccc(Nc2ncc3cc4n(c3n2)C2(CCCCC2)C(=O)NN4)cc1 [INX-315]
- inhibition at 0.1 µM (PIK3C2A (PI3K-C2 alpha)): -1%
- inhibition at 0.1 µM (CDK9/cyclin T1): 52%
- inhibition at 0.1 µM (PI4KB (PI4K beta)): 2%
- inhibition at 0.1 µM (CDK6/cyclin D1): 15%
- inhibition at 0.1 µM (LRRK2): 29%
- inhibition at 0.1 µM (PIP5K1A): 6%
- inhibition at 0.1 µM [1]: -1%
- inhibition at 0.1 µM (PI4K2B (PI4K2 beta)): -2%
- inhibition at 0.1 µM (DAPK1): -8%
- inhibition at 0.1 µM (NUAK1 (ARK5)): 68%
- inhibition at 0.1 µM (CDK4/cyclin D3): 22%
- inhibition at 0.1 µM (LRRK2 I2020T): 28%
- inhibition at 0.1 µM [2]: -2%
- inhibition at 0.1 µM (CAMK1 (CaMK1)): -17%
- inhibition at 0.1 µM (CDK7/cyclin H/MNAT1): -3%
- inhibition at 0.1 µM (LRRK2 G2019S FL): 40%
- inhibition at 0.1 µM (PIP4K2A): 7%
- inhibition at 0.1 µM (PIK3CG (p110 gamma)): -8%
- inhibition at 0.1 µM (PI4KA (PI4K alpha)): -11%
- inhibition at 0.1 µM (PIK3C3 (hVPS34)): 7%
- inhibition at 0.1 µM (GSG2 (Haspin)): 4%
- inhibition at 0.1 µM (CDK4/cyclin D1): 24%
- inhibition at 0.1 µM (SPHK2): -19%
- inhibition at 0.1 µM [3]: 0%
- inhibition at 0.1 µM (LRRK2 R1441C): 22%
- IC50 ([4]; MCF7, Supp Fig S9D, DMSO + INX-315, read-out: INX-315 IC50): 906 nM
- IC50 ([4]; MCF7, cultured out of CDK4/6i, read-out: IC50 to INX-315): < 900 nM
- IC50 ([4]; MCF7, with abemaciclib (1 µmol/L), read-out: IC50 to INX-315): 28 nM
- IC50 ([4]; MCF7, with lerociclib (1 µmol/L), read-out: IC50 to INX-315): 23 nM
- IC50 ([4]; MCF7, with palbociclib (1 µmol/L), read-out: IC50 to INX-315): 14 nM
- IC50 [5]: 36 nM
- IC50 (MKN1): 44 nM
